From ChEMBL document CHEMBL1201862, “PubChem BioAssay data set” (2004)
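The compound was tested at five concentrations on cells cultured in 96-well plates, with a 48-hour exposure period. GI50 = concentration required for 50% inhibition of growth.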 The source made the active and inactive calls. No stated cut-off is given here; in the data, active = GI50 up to about 1.1 µM and inactive = higher.

Key:
Experiment in all cases: inhibition of tumour cell growth, NCI panel, 48 h
OVCAR-4 = tested on: OVCAR-4
NCI-H226 = tested on: NCI-H226
NCI-H460 = tested on: NCI-H460
K562 = tested on: K562
SW-620 = tested on: SW-620
SNB-19 = tested on: SNB-19
BT-549 = tested on: BT-549
786-0 = tested on: 786-0
Hs-578T = tested on: Hs-578T
KM12 = tested on: KM12
LOX IMVI = tested on: LOX IMVI
SK-MEL-2 = tested on: SK-MEL-2
NCI-H522 = tested on: NCI-H522
DU-145 = tested on: DU-145
TK-10 = tested on: TK-10
UO-31 = tested on: UO-31
CCRF-CEM = tested on: CCRF-CEM
MDA-N = tested on: MDA-N
HCT-15 = tested on: HCT-15
RPMI-8226 = tested on: RPMI-8226
ACHN = tested on: ACHN
A549 = tested on: A549
M14 = tested on: M14
A498 = tested on: A498
OVCAR-3 = tested on: OVCAR-3
HT-29 = tested on: HT-29
MDA-MB-435 = tested on: MDA-MB-435
RXF 393 = tested on: RXF 393
MOLT-4 = tested on: MOLT-4
HL-60 = tested on: HL-60
IGROV-1 = tested on: IGROV-1
U-251 = tested on: U-251
HOP-62 = tested on: HOP-62
SK-OV-3 = tested on: SK-OV-3
COLO 205 = tested on: COLO 205
SF-268 = tested on: SF-268
HCT-116 = tested on: HCT-116
NCI-H23 = tested on: NCI-H23
NCI/ADR-RES = tested on: NCI/ADR-RES
OVCAR-8 = tested on: OVCAR-8
SN12C = tested on: SN12C
SNB-75 = tested on: SNB-75
SK-MEL-28 = tested on: SK-MEL-28
Malme-3M = tested on: Malme-3M
EKVX = tested on: EKVX
UACC-257 = tested on: UACC-257
UACC-62 = tested on: UACC-62
SF-295 = tested on: SF-295
CAKI-1 = tested on: CAKI-1
SK-MEL-5 = tested on: SK-MEL-5
MDA-MB-231 = tested on: MDA-MB-231
PC-3 = tested on: PC-3
OVCAR-5 = tested on: OVCAR-5
MCF7 = tested on: MCF7
HOP-92 = tested on: HOP-92
HCC 2998 = tested on: HCC 2998
SF-539 = tested on: SF-539
SR = tested on: SR

c1ccc(C2CC(NC3CCCCC3)=Nc3ccccc3N2)cc1 (stereo unspecified)
GI50 (OVCAR-4): > 100 µM (inactive)
GI50 (NCI-H226): > 100 µM (inactive)
GI50 (NCI-H460): 46.9 µM (inactive)
GI50 (K562): 19.3 µM (inactive)
GI50 (SW-620): > 100 µM (inactive)
GI50 (SNB-19): > 100 µM (inactive)
GI50 (BT-549): 54.8 µM (inactive)
GI50 (786-0): > 100 µM (inactive)
GI50 (Hs-578T): 28.4 µM (inactive)
GI50 (KM12): 40.8 µM (inactive)
GI50 (LOX IMVI): 20.4 µM (inactive)
GI50 (SK-MEL-2): > 100 µM (inactive)
GI50 (NCI-H522): 22.8 µM (inactive)
GI50 (DU-145): > 100 µM (inactive)
GI50 (TK-10): > 100 µM (inactive)
GI50 (UO-31): > 100 µM (inactive)
GI50 (CCRF-CEM): 34.9 µM (inactive)
GI50 (MDA-N): 75.9 µM (inactive)
GI50 (HCT-15): 94.2 µM
GI50 (RPMI-8226): 34 µM (inactive)
GI50 (ACHN): > 100 µM (inactive)
GI50 (A549): > 100 µM (inactive)
GI50 (M14): 27.4 µM (inactive)
GI50 (A498): 18.8 µM (inactive)
GI50 (OVCAR-3): > 100 µM (inactive)
GI50 (HT-29): 24.2 µM (inactive)
GI50 (MDA-MB-435): 24.3 µM (inactive)
GI50 (RXF 393): 31.7 µM (inactive)
GI50 (MOLT-4): 17.7 µM (inactive)
GI50 (HL-60): 25.8 µM (inactive)
GI50 (IGROV-1): 27.7 µM (inactive)
GI50 (U-251): 56.9 µM (inactive)
GI50 (HOP-62): > 100 µM (inactive)
GI50 (SK-OV-3): > 100 µM (inactive)
GI50 (COLO 205): 24.2 µM (inactive)
GI50 (SF-268): 65.3 µM (inactive)
GI50 (HCT-116): 73.5 µM (inactive)
GI50 (NCI-H23): 54.1 µM (inactive)
GI50 (NCI/ADR-RES): > 100 µM (inactive)
GI50 (OVCAR-8): > 100 µM (inactive)
GI50 (SN12C): > 100 µM (inactive)
GI50 (SNB-75): 16.4 µM (inactive)
GI50 (SK-MEL-28): 45.2 µM (inactive)
GI50 (Malme-3M): 15.6 µM (inactive)
GI50 (EKVX): 54.8 µM (inactive)
GI50 (UACC-257): 47.5 µM (inactive)
GI50 (UACC-62): 31.2 µM (inactive)
GI50 (SF-295): 44 µM (inactive)
GI50 (CAKI-1): 98.9 µM (inactive)
GI50 (SK-MEL-5): 18.7 µM (inactive)
GI50 (MDA-MB-231): 24.5 µM (inactive)
GI50 (PC-3): 33.6 µM (inactive)
GI50 (OVCAR-5): 78.2 µM (inactive)

CNC(=O)OCc1nc(N=[N+]=[N-])n(C)c1COC(=O)NC
GI50 (OVCAR-4): 37.1 µM (inactive)
GI50 (NCI-H226): > 100 µM (inactive)
GI50 (NCI-H460): 29.6 µM (inactive)
GI50 (K562): 46.5 µM (inactive)
GI50 (SW-620): 66.1 µM (inactive)
GI50 (MCF7): 38 µM (inactive)
GI50 (BT-549): > 10 µM (inactive)
GI50 (786-0): > 10 µM (inactive)
GI50 (Hs-578T): > 100 µM (inactive)
GI50 (KM12): 69.8 µM (inactive)
GI50 (LOX IMVI): 60.8 µM (inactive)
GI50 (SK-MEL-2): 26.7 µM (inactive)
GI50 (NCI-H522): 19.5 µM (inactive)
GI50 (HOP-92): 25.3 µM (inactive)
GI50 (DU-145): 49.8 µM (inactive)
GI50 (HCC 2998): 38.4 µM (inactive)
GI50 (TK-10): 32.2 µM (inactive)
GI50 (UO-31): > 10 µM (inactive)
GI50 (CCRF-CEM): 32.1 µM (inactive)
GI50 (MDA-N): 60.4 µM (inactive)
GI50 (HCT-15): 60.4 µM
GI50 (RPMI-8226): 28.6 µM (inactive)
GI50 (ACHN): 33.4 µM (inactive)
GI50 (A549): 61.7 µM (inactive)
GI50 (SF-539): 54.5 µM (inactive)
GI50 (A498): 32.3 µM (inactive)
GI50 (OVCAR-3): 39.2 µM (inactive)
GI50 (HT-29): 58.3 µM (inactive)
GI50 (MDA-MB-435): 37.2 µM (inactive)
GI50 (RXF 393): 21.7 µM (inactive)
GI50 (MOLT-4): 26 µM (inactive)
GI50 (HL-60): 17.5 µM (inactive)
GI50 (IGROV-1): > 100 µM (inactive)
GI50 (U-251): 31.3 µM (inactive)
GI50 (HOP-62): 52.7 µM (inactive)
GI50 (COLO 205): 32.8 µM (inactive)
GI50 (SF-268): 32.1 µM (inactive)
GI50 (HCT-116): 46.2 µM (inactive)
GI50 (NCI-H23): 54.2 µM (inactive)
GI50 (NCI/ADR-RES): 69.8 µM (inactive)
GI50 (OVCAR-8): 58.9 µM (inactive)
GI50 (SN12C): 55.7 µM (inactive)
GI50 (SNB-75): 49 µM (inactive)
GI50 (SK-MEL-28): > 100 µM (inactive)
GI50 (Malme-3M): 55.7 µM (inactive)
GI50 (EKVX): > 100 µM (inactive)
GI50 (UACC-257): > 100 µM (inactive)
GI50 (SF-295): 67.1 µM (inactive)
GI50 (CAKI-1): 20.7 µM (inactive)
GI50 (SK-MEL-5): > 10 µM (inactive)
GI50 (MDA-MB-231): 95.5 µM (inactive)
GI50 (SR): 21.3 µM (inactive)
GI50 (PC-3): 96.2 µM (inactive)
GI50 (OVCAR-5): > 100 µM (inactive)

Nc1ccc(-c2nc3ccc(F)cc3s2)cc1Cl
GI50 (OVCAR-4): 0.0174 µM (active)
GI50 (NCI-H226): 14.1 µM (inactive)
GI50 (K562): > 100 µM (inactive)
GI50 (SW-620): > 100 µM (inactive)
GI50 (MCF7): < 0.01 µM (active)
GI50 (SNB-19): > 62.2 µM (inactive)
GI50 (BT-549): > 70.6 µM (inactive)
GI50 (786-0): > 61.1 µM (inactive)
GI50 (Hs-578T): 32.9 µM (inactive)
GI50 (KM12): > 100 µM (inactive)
GI50 (LOX IMVI): > 73.1 µM (inactive)
GI50 (SK-MEL-2): > 84.1 µM (inactive)
GI50 (NCI-H522): > 70.5 µM (inactive)
GI50 (HOP-92): 24.9 µM (inactive)
GI50 (DU-145): > 100 µM (inactive)
GI50 (HCC 2998): 0.0869 µM (active)
GI50 (TK-10): < 0.01 µM (active)
GI50 (UO-31): > 100 µM (inactive)
GI50 (CCRF-CEM): 5.57 µM (inactive)
GI50 (MDA-N): > 100 µM (inactive)
GI50 (HCT-15): > 100 µM
GI50 (RPMI-8226): > 100 µM (inactive)
GI50 (ACHN): > 100 µM (inactive)
GI50 (A549): > 100 µM (inactive)
GI50 (SF-539): 53.5 µM (inactive)
GI50 (M14): > 100 µM (inactive)
GI50 (A498): 0.402 µM (active)
GI50 (OVCAR-3): 0.126 µM (active)
GI50 (HT-29): 52.7 µM (inactive)
GI50 (MDA-MB-435): > 100 µM (inactive)
GI50 (RXF 393): > 41.5 µM (inactive)
GI50 (MOLT-4): > 20.4 µM (inactive)
GI50 (IGROV-1): < 0.01 µM (active)
GI50 (U-251): > 65.5 µM (inactive)
GI50 (HOP-62): 26.9 µM (inactive)
GI50 (SK-OV-3): > 100 µM (inactive)
GI50 (COLO 205): > 100 µM (inactive)
GI50 (SF-268): 35.3 µM (inactive)
GI50 (NCI-H23): > 82 µM (inactive)
GI50 (NCI/ADR-RES): > 100 µM (inactive)
GI50 (OVCAR-8): > 65.5 µM (inactive)
GI50 (SN12C): > 100 µM (inactive)
GI50 (SNB-75): 37 µM (inactive)
GI50 (SK-MEL-28): > 100 µM (inactive)
GI50 (Malme-3M): > 100 µM (inactive)
GI50 (EKVX): > 61.9 µM (inactive)
GI50 (UACC-257): > 100 µM (inactive)
GI50 (UACC-62): > 69.8 µM (inactive)
GI50 (SF-295): > 47.1 µM (inactive)
GI50 (CAKI-1): > 78.5 µM (inactive)
GI50 (SK-MEL-5): > 100 µM (inactive)
GI50 (MDA-MB-231): > 55.3 µM (inactive)
GI50 (SR): > 100 µM (inactive)
GI50 (PC-3): > 100 µM (inactive)
